Patent US20050048088A1, “Compositions comprising at least two nanoemulsions” (priority 2003, published 2005)

Assay: Recrystallization of CoQ10 from warm oil/alcohol solution on cooling to room temperature
Assay type: physicochemical
Settings: cooled to room temperature (25° C.)
Method: (§1) 30 g of lecithin were dissolved in 100 g of alcohol and added with stirring to 520 g of water and 200 g of glycerin. 10 g of Coenzyme Q10 (ubichinone) [CoQ10] were dissolved at 40° C. in 40 g of vegetable oil and 100 g of alcohol (ethanol). […] Therefore, the CoQ10 solution, having a temperature of 40° C., was added to the lecithin/alcohol/glycerin/water mixture and then homogenized six times at 1200 bar (1.2·10^8 Pa) using a high pressure homgenizer of Microfluidics Corp (MT 110®), Thereby, the alcohol was homogeneously distributed in the nanoemulsion. An orange transparent nanoemulsion was obtained.
as §1, with “50 g” for “30 g”, “to 430” for “to 520”, “glycerin. 80” for “glycerin. 10”, “at 45°” for “at 40°”, “pressure homogenizer” for “pressure homgenizer”, “(MT 110®).” for “(MT 110®),”

COC1=C(OC)C(=O)C(C/C=C(\C)CC/C=C(\C)CC/C=C(\C)CC/C=C(\C)CC/C=C(\C)CC/C=C(\C)CC/C=C(\C)CC/C=C(\C)CC/C=C(\C)CCC=C(C)C)=C(C)C1=O [CoQ10, Coenzyme Q10]
behaviour of CoQ10 solution on cooling (10 g CoQ10 dissolved at 40° C. in 40 g vegetable oil and 100 g alcohol): most of the CoQ10 recrystallizes out from the solution after some hours | behaviour of CoQ10 solution on cooling (80 g CoQ10 dissolved at 45° C. in 40 g vegetable oil and 100 g alcohol): most of the CoQ10 recrystallized out from the solution after some hours
